# In patent US20080167314A1, “Condensed Imidazole Compound And Use Thereof” (priority 2004, published 2008):
row,melting point,SMILES
1,193 to 195 °C,"Cc1cccc(-c2nc3cccnn3c2-c2ccnc(NC(=O)NC(C)C)c2)c1 [Example Compound 27-6, N-isopropyl-N′-{4-[2-(3-methylphenyl)imidazo[1,2-b]pyridazin-3-yl]pyridin-2-yl}urea]"
2,196 to 197 °C,"Cc1cc(-c2nc3cccnn3c2-c2ccnc(NC(=O)c3ccc(Cl)cc3C)c2)ccc1F [Example 42-15, 4-chloro-N-{4-[2-(4-fluoro-3-methylphenyl)imidazo[1,2-b]pyridazin-3-yl]pyridin-2-yl}-2-methylbenzamide]"
3,240 to 241 °C,"Cc1cc(-c2nc3cccnn3c2-c2ccnc(NC(=O)CS(C)(=O)=O)c2)ccc1F [Example 57-1, N-{4-[2-(4-fluoro-3-methylphenyl)imidazo[1,2-b]pyridazin-3-yl]pyridin-2-yl}-2-(methylsulfonyl)acetamide]"
4,192 to 193 °C,"CCC(=O)Nc1cc(-c2c(-c3cccc(Cl)c3)nc3cccnn23)ccn1 [Example Compound 21-7, N-{4-[2-(3-chlorophenyl)imidazo[1,2-b]pyridazin-3-yl]pyridin-2-yl}propanamide]"
5,150 to 151 °C,"CSc1ccc2nc(-c3cccc(C)c3)c(-c3ccnc(NC4CCCCC4)c3)n2n1 [Example 10, N-Cyclohexyl-4-[2-(3-methylphenyl)-6-(methylthio)imidazo[1,2-b]pyridazin-3-yl]pyridin-2-amine]"
6,227 to 228 °C,"CC(=O)Nc1cc(-c2c(-c3cccc(C)c3)nc3cccnn23)ccn1 [Example Compound 20-7, N-{4-[2-(3-methylphenyl)imidazo[1,2-b]pyridazin-3-yl]pyridin-2-yl}acetamide]"
7,213 to 214 °C,"Cc1cc(-c2nc3cccnn3c2-c2ccnc(NC(=O)NCC(C)C)c2)ccc1F [Example 51-3, N-{4-[2-(4-fluoro-3-methylphenyl)imidazo[1,2-b]pyridazin-3-yl]pyridin-2-yl}-N′-isobutylurea]"
8,225 to 226 °C,"Cc1cc(-c2nc3cccnn3c2-c2ccnc(NC(=O)c3ccc(C(F)(F)F)nc3)c2)ccc1F [Example 42-26, N-{4-[2-(4-fluoro-3-methylphenyl)imidazo[1,2-b]pyridazin-3-yl]pyridin-2-yl}-6-(trifluoromethyl)nicotinamide]"
9,223 to 224 °C,"COc1ccc(C(=O)Nc2cc(-c3c(-c4cccc(Cl)c4)nc4cccnn34)ccn2)cc1 [Example Compound 21-3, N-{4-[2-(3-chlorophenyl)imidazo[1,2-b]pyridazin-3-yl]pyridin-2-yl}-4-methoxybenzamide]"
10,239 to 240 °C,"Cc1cc(NC(=O)Nc2cc(-c3c(-c4ccc(F)c(C)c4)nc4cccnn34)ccn2)[nH]n1 [Example 51-8, N-{4-[2-(4-fluoro-3-methylphenyl)imidazo[1,2-b]pyridazin-3-yl]pyridin-2-yl}-N′-(3-methyl-1H-pyrazol-5-yl)urea]"
11,193 to 194 °C,"COc1ccc(C(=O)Nc2cc(-c3c(-c4cccc(C)c4)nc4ccc(N(C)C)nn34)ccn2)cc1 [Example 45-1, N-{4-[6-(dimethylamino)-2-(3-methylphenyl)imidazo[1,2-b]pyridazin-3-yl]pyridin-2-yl}-4-methoxybenzamide]"
12,237 to 238 °C,"CSc1cc(Cl)nn2c(-c3ccnc(N)c3)c(-c3ccc(F)c(C)c3)nc12 [Example Compound 36-4, 4-[6-chloro-2-(4-fluoro-3-methylphenyl)-8-(methylthio)imidazo[1,2-b]pyridazin-3-yl]-2-pyridylamine]"
13,99 to 100 °C,"COCCNc1cc(-c2c(-c3cccc(C)c3)nc3cccnn23)ccn1 [Example Compound 6-13, N-(2-methoxyethyl)-4-[2-(3-methylphenyl)imidazo[1,2-b]pyridazin-3-yl]pyridin-2-amine]"
14,173 to 175 °C,"Cc1cccc(-c2nc3cccnn3c2-c2ccnc(NC(=O)N3CCCCC3)c2)c1 [Example 31, N-{4-[2-(3-Methylphenyl)imidazo[1,2-b]pyridazin-3-yl]pyridin-2-yl}piperidine-1-carboxamide]"
15,218 to 219 °C,"Cc1cc(-c2nc3c(C)cc(Cl)nn3c2-c2ccnc(N)c2)ccc1F [Example Compound 36-1, 4-[6-chloro-2-(4-fluoro-3-methylphenyl)-8-methylimidazo[1,2-b]pyridazin-3-yl]-2-pyridylamine]"
16,263 to 264 °C,"CCNC(=O)Nc1cc(-c2c(-c3ccc(F)c(C)c3)nc3ccc(NC)nn23)ccn1 [Example 48-5, N-ethyl-N′-{4-[2-(4-fluoro-3-methylphenyl)-6-(methylamino)imidazo[1,2-b]pyridazin-3-yl]pyridin-2-yl}urea]"
17,204 to 206 °C,"Cc1cc(-c2nc3cccnn3c2-c2ccnc(NC(=O)Nc3ccc(C#N)cc3)c2)ccc1F [Example 47-5, N-(4-cyanophenyl)-N′-{4-[2-(4-fluoro-3-methylphenyl)imidazo[1,2-b]pyridazin-3-yl]pyridin-2-yl}urea]"
18,169 to 170 °C,"Cc1cccc(-c2nc3cccnn3c2-c2ccnc(NC3CCCCC3)c2)c1 [Example Compound 6-1, N-cyclohexyl-4-[2-(3-methylphenyl)imidazo[1,2-b]pyridazin-3-yl]pyridin-2-amine]"
19,128 to 129 °C,"CCCNc1cc(-c2c(-c3cccc(C)c3)nc3cccnn23)ccn1 [Example Compound 6-25, 4-[2-(3-methylphenyl)imidazo[1,2-b]pyridazin-3-yl]-N-propylpyridin-2-amine]"

row,melting point,SMILES
1,208 to 209 °C,"CC(=O)CNC(=O)Nc1cc(-c2c(-c3ccc(F)c(C)c3)nc3cccnn23)ccn1 [Example 63, N-{4-[2-(4-Fluoro-3-methylphenyl)imidazo[1,2-b]pyridazin-3-yl]pyridin-2-yl}-N′-(2-oxopropyl)urea]"
2,137 to 138 °C,"Cc1cccc(-c2nc3cccnn3c2-c2ccnc(NCC3CCCO3)c2)c1 (stereo not shown) [Example Compound 6-16, 4-[2-(3-methylphenyl)imidazo[1,2-b]pyridazin-3-yl]-N-(tetrahydrofuran-2-ylmethyl)pyridin-2-amine]"
3,252 to 253 °C,"Cc1cc(-c2nc3cccnn3c2-c2ccnc(NC(=O)c3cccc4ccccc34)c2)ccc1F [Example 42-20, N-{4-[2-(4-fluoro-3-methylphenyl)imidazo[1,2-b]pyridazin-3-yl]pyridin-2-yl}-1-naphthamide]"
4,156 to 157 °C,Cc1cc(-c2nc3cccnn3c2-c2ccnc(NC(=O)N3CCC(O)CC3)c2)ccc1F.Cl
5,247 to 248 °C,"Cc1cccc(-c2nc3ccc(Cl)nn3c2-c2ccnc(N)c2)c1 [Example 12, 4-[6-Chloro-2-(3-methylphenyl)imidazo[1,2-b]pyridazin-3-yl]pyridin-2-amine]"
6,139 to 140 °C,"Cc1cc(-c2nc3cccnn3c2-c2ccnc(NC(=O)NCC(C)O)c2)ccc1F (stereo not shown) [Example 51-13, N-{4-[2-(4-fluoro-3-methylphenyl)imidazo[1,2-b]pyridazin-3-yl]pyridin-2-yl}-N′-(2-hydroxypropyl)urea]"
7,222 to 223 °C,"CC(C)NC(=O)Nc1cc(-c2c(-c3ccc(F)cc3)nc3cccnn23)ccn1 [Example Compound 28-10, N-{4-[2-(4-fluorophenyl)imidazo[1,2-b]pyridazin-3-yl]pyridin-2-yl}-N′-isopropylurea]"
8,191 to 192 °C,"Cc1cccc(-c2nc3ccc(Cl)nn3c2-c2ccnc(Nc3ccc(F)cc3C)c2)c1 [Example Compound 3-1, 4-[6-chloro-2-(3-methylphenyl)imidazo[1,2-b]pyridazin-3-yl]-N-(4-fluoro-2-methylphenyl)pyridin-2-amine]"
9,191 to 192 °C,"CSc1ccc(C(=O)Nc2cc(-c3c(-c4ccc(F)c(C)c4)nc4cccnn34)ccn2)cc1 [Example 42-9, N-{4-[2-(4-fluoro-3-methylphenyl)imidazo[1,2-b]pyridazin-3-yl]pyridin-2-yl}-4-(methylthio)benzamide]"
10,188 to 189 °C,Cc1cc(-c2nc3cccnn3c2-c2ccnc(NC(=O)NCCCCO)c2)ccc1F.Cl
11,178 to 180 °C,"CNc1ccc2nc(-c3ccc(F)c(C)c3)c(-c3ccnc(NC(=O)c4ccc(OC)cc4)c3)n2n1 [Example 46, N-{4-[2-(4-Fluoro-3-methylphenyl)-6-(methylamino)imidazo[1,2-b]pyridazin-3-yl]pyridin-2-yl}-4-methoxybenzamide]"
12,211 to 212 °C,"Cc1ccc(C(=O)Nc2nccc(-c3c(-c4cccc(C)c4)nc4cccnn34)n2)cc1 [Example 44-1, 4-methyl-N-{4-[2-(3-methylphenyl)imidazo[1,2-b]pyridazin-3-yl]pyrimidin-2-yl}benzamide]"
13,202 to 203 °C,"Cc1cccc(-c2nc3cccnn3c2-c2ccnc(NC3CC3)c2)c1 [Example Compound 6-4, N-cyclopropyl-4-[2-(3-methylphenyl)imidazo[1,2-b]pyridazin-3-yl]pyridin-2-amine]"
14,208 to 209 °C,"Cc1cc(-c2nc3cccnn3c2-c2ccnc(NC(=O)c3ccc(Cl)cc3)c2)ccc1F [Example 42-7, 4-chloro-N-{4-[2-(4-fluoro-3-methylphenyl)imidazo[1,2-b]pyridazin-3-yl]pyridin-2-yl}benzamide]"
15,258 to 259 °C,"Cc1cc(-c2nc3cccnn3c2-c2ccnc(NC(=O)c3cccnc3C)c2)ccc1F [Example 42-29, N-{4-[2-(4-fluoro-3-methylphenyl)imidazo[1,2-b]pyridazin-3-yl]pyridin-2-yl}-2-methylnicotinamide]"
16,225 to 226 °C,"Cc1cc(-c2nc3cccnn3c2-c2ccnc(NC(=O)c3ccc(Cl)nc3)c2)ccc1F [Example 42-24, 6-chloro-N-{4-[2-(4-fluoro-3-methylphenyl)imidazo[1,2-b]pyridazin-3-yl]pyridin-2-yl}nicotinamide]"
17,138 to 139 °C,"CCC(=O)Nc1cc(-c2c(-c3cccc(C)c3)nc3cccnn23)ccn1 [Example Compound 20-9, N-{4-[2-(3-methylphenyl)imidazo[1,2-b]pyridazin-3-yl]pyridin-2-yl}propanamide]"
18,246 to 247 °C,"CCNC(=O)Nc1cc(-c2c(-c3ccc(F)c(C)c3)nc3cc(C(C)(C)C)c(Cl)nn23)ccn1 [Example 48-2, N-{4-[7-tert-butyl-6-chloro-2-(4-fluoro-3-methylphenyl)imidazo[1,2-b]pyridazin-3-yl]-2-pyridyl}-N′-ethylurea]"
